38 molecules from patent US11814364B2, “Pyridine N-oxide derivatives useful as factor XIa inhibitors” (Janssen Pharmaceutica NV, priority 2021, dated 2023) can be followed below.

Bounds are passed on as bounds.

Chain of human plasma kallikrein (P03952 391-638 limits assumed): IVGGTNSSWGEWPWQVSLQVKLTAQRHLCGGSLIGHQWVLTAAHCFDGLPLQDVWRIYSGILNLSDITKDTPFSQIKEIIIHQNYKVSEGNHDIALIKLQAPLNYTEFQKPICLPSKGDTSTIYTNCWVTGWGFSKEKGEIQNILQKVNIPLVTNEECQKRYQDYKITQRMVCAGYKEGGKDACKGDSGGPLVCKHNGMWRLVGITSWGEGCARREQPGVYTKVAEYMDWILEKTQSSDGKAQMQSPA
Chain of human plasma kallikrein (P03952 20-390 partner limits assumed): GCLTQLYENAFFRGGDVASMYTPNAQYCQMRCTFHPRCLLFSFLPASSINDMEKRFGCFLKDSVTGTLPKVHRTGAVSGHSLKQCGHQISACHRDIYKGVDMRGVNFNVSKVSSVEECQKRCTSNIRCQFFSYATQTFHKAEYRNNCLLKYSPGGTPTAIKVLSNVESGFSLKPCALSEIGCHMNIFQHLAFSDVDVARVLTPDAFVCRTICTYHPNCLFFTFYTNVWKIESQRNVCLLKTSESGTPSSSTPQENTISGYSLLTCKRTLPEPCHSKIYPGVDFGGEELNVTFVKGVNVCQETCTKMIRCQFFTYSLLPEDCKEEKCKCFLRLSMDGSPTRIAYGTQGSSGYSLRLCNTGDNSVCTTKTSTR

The assay concerns the target human plasma kallikrein (Homo sapiens, UniProt P03952). The assay is described as follows: Kallikrein inhibition FLINT assay with quenched AMC peptide substrate Z-Gly-Pro-Arg-AMC (end point EP or kinetic KIN reads). In kind it is biochemical. As to conditions: kinetic reads at 5 min intervals over 30 min; read-out: Kallikrein (KIN) IC50. A digest of the protocol:
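Enzyme and compound were preincubated 30 min before adding 50 μM AMC substrate in pH 7.5 Tris/NaCl/CaCl2/BSA/CHAPS buffer. AMC release was read at 30 min endpoint or every 5 min.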
Regarding `[O-][n+]1cc(-c2c(-n3cnnn3)ccc(Cl)c2F)ccc1[C@@H](CC1CC1)n1cc(-c2c(F)cnn2C(F)F)cn1` [Example P628], the IC50 turned out to be 165 nM.
Take `[2H]C([2H])(C[C@H](c1ccc(-c2c(-n3cnnn3)ccc(Cl)c2F)c[n+]1[O-])n1cc(-c2cn(C)nc2Cl)cn1)OC(F)F` [Example P850]: the IC50 came out at 1.4 nM.
The figure for `Nc1ncc(-c2cnn(C(CC3CC3)c3ccc(-c4c(-n5cnnn5)ccc(Cl)c4F)c[n+]3[O-])c2)cc1F` (single isomer, unassigned) [Example P194] is 228 nM.
Next, `COC(=O)Nc1ccc(-c2cnn(C(CC3CCC(C)(C)CC3)c3ccc(-c4c(-n5cnnn5)ccc(Cl)c4F)c[n+]3[O-])c2)cc1` (centres unmarked) [Example P122]: 260 nM; `COC(=O)Nc1ccc(-c2cnn(C(Cc3ccc(Cl)cc3)c3ccc(-c4c(-n5cnnn5)ccc(Cl)c4F)c[n+]3[O-])c2)cc1` (single isomer, unassigned) [Example P159]: 215 nM; `[O-][n+]1cc(-c2c(-n3cnnn3)ccc(Cl)c2F)ccc1C(Cc1ccc(C(F)(F)F)nc1)n1cc(-c2ccnn2C(F)F)cn1` (centres unmarked) [Example P753]: 54.3 nM.
Next, `[O-][n+]1cc(-c2cc(Cl)ccc2-n2cnnn2)ccc1C(Cc1ccc(Cl)cc1)n1cc(-c2ccc(OC(F)(F)F)cc2)cn1` (centres unmarked) [Example P150]: 397 nM; `[O-][n+]1cc(-c2c(-n3cc(Cl)nn3)ccc(Cl)c2F)ccc1[C@H](Cn1cc(F)cn1)n1cc(-c2c(F)cnn2C(F)F)cn1` [Example P634]: 739 nM.
`[O-][n+]1cc(-c2c(-n3cnnn3)ccc(Cl)c2F)ccc1C(CCOC(F)F)n1cc(-c2ccnc(C(F)(F)F)n2)cn1` (single isomer, unassigned) [Example P401]: the IC50 was found to be 18.6 nM.
On to `COc1cc(C(CC2CC2C(N)=O)n2cc(-c3ccc(N)nc3C)cn2)[n+]([O-])cc1-c1c(-n2cnnn2)ccc(Cl)c1F` (centres unmarked) [Example P247], for which the IC50 amounted to 5.8 nM.
For the molecule `COC(=O)N1CCC(c2cnn(C(CC3CC3)c3ccc(-c4c(-n5cnnn5)ccc(Cl)c4F)c[n+]3[O-])c2)CC1` (centres unmarked) [Example P167], the IC50 came out at 826 nM.
The figure for `O=C(Nc1ccnc(F)c1-c1cnn(C(Cc2ccc(F)cc2)c2ccc(-c3c(-c4cnco4)ccc(Cl)c3F)c[n+]2[O-])c1)C1CC1` (centres unmarked) [Example P148] is 350 nM; for `CCC(c1ccc(-c2c(-n3cnnn3)ccc(Cl)c2F)c[n+]1[O-])n1cc(-c2ccc(C(N)=O)c(F)c2)cn1` (single isomer, unassigned) [Example P949] it is 21.6 nM.
For the molecule `O=C1CCCN1CC(c1ccc(-c2c(-n3cnnn3)ccc(Cl)c2F)c[n+]1[O-])n1cc(-c2ccncc2)cn1` (centres unmarked) [Example P242], the IC50 turned out to be 3.9 nM.
Take `COCC(=O)Nc1ccc(-c2cnn(C(CC3CC3)c3ccc(-c4c(-n5cnnn5)ccc(Cl)c4F)c[n+]3[O-])c2)cc1` (centres unmarked) [Example P131]: the IC50 turned out to be 192 nM.
Turning to `COc1cc(C(CC2CC2)n2cc(-c3cnn(C)c(=O)c3)cn2)[n+]([O-])cc1-c1c(-n2cnnn2)ccc(Cl)c1F` (centres unmarked) [Example P66], the IC50 is 20.6 nM.
As to `Cc1cc(C(N)=O)sc1-c1cnn(C(CC2CC2)c2ccc(-c3c(-n4cnnn4)ccc(Cl)c3F)c[n+]2[O-])c1` (centres unmarked) [Example P960], the IC50 turned out to be 52.9 nM.
In the case of `NC(=O)c1ccc(-c2cnn([C@H](CCOC(F)F)c3ccc(-c4cc(Cl)ccc4-n4cc(C(F)(F)F)nn4)c[n+]3[O-])c2)cc1F` [Example P859], the half-inhibitory concentration (IC50) worked out at 28.7 nM.
For the molecule `Cn1cc(C[C@@H](c2ccc(-c3c(-n4cnnn4)ccc(Cl)c3F)c[n+]2[O-])n2cc(-c3ccnc(C(F)(F)F)c3)cn2)nn1` [Example P737], the IC50 was 818 nM.
For `O=C(O)c1ccc(-c2cnn(C(Cc3ccn(C(F)F)n3)c3ccc(-c4c(C(F)F)ccc(Cl)c4F)c[n+]3[O-])c2)cc1` (single isomer, unassigned) [Example Q70], the IC50 is > 274 nM.
On to `Cc1nccn1-c1cnn(C(CCOC(F)F)c2ccc(-c3c(-n4cc(OC(F)F)nn4)ccc(Cl)c3F)c[n+]2[O-])c1` (single isomer, unassigned) [Example P826], for which the IC50 was 303 nM.
Turning to `[O-][n+]1cc(-c2c(-n3cc(Cl)nn3)ccc(Cl)c2F)ccc1[C@@H](CCOC(F)F)n1cc(-c2cn(C(F)F)nn2)cn1` [Example P679], the IC50 was 353 nM.
The figure for `NC(=O)c1ccc(-c2cnn(C(CC3CC3)c3ccc(-c4c(-n5cc(C(F)(F)F)nn5)ccc(Cl)c4F)c[n+]3[O-])c2)cc1F` (single isomer, unassigned) [Example P889] is 77.8 nM; for `[O-][n+]1cc(-c2c(-n3cnnn3)ccc(Cl)c2F)ccc1C(Cn1cccn1)n1cc(-c2ccnc(C(F)F)c2)cn1` (centres unmarked) [Example P318] it is 13.9 nM.
`[O-][n+]1cc(-c2c(-n3cnnn3)ccc(Cl)c2F)ccc1[C@@H](CC1CC1)n1cc(-c2ncnn2C(F)F)cn1` [Example P762]: the IC50 stood at 249 nM.
Consider `[O-][n+]1cc(-c2c(-n3cnnn3)ccc(Cl)c2F)ccc1C(Cn1cc(F)cn1)n1cc(-c2cc(C(F)(F)F)ncn2)cn1` (centres unmarked) [Example P468], for which the half-maximal inhibitory concentration (IC50) was found to be 159 nM.
For the molecule `Cn1nncc1-c1cnn([C@H](CCOC(F)F)c2ccc(-c3c(N)ccc(Cl)c3F)c[n+]2[O-])c1` [Example Q44], the IC50 came out at 80.7 nM.
The figure for `[O-][n+]1cc(-c2c(-n3cnnn3)ccc(Cl)c2F)ccc1C(CC1CC1)n1cc(-c2ccncc2)cn1` (single isomer, unassigned) [Example P262] is 31.8 nM.
Turning to `Cc1ncsc1-c1cnn(C(CC2CC2)c2ccc(-c3c(-n4cnnn4)ccc(Cl)c3F)c[n+]2[O-])c1` (centres unmarked) [Example P488], the IC50 was 92.5 nM.
Next, `CN(CC(c1ccc(-c2c(-n3cnnn3)ccc(Cl)c2F)c[n+]1[O-])n1cc(-c2ccnc(F)c2)cn1)C(=O)c1ccccc1` (centres unmarked) [Example P424]: 28.6 nM.
`[O-][n+]1cc(-c2c(-n3cnnn3)ccc(Cl)c2F)ccc1C(Cc1ccc(F)cc1)n1cc(-c2ccncc2)cn1` (single isomer, unassigned) [Example P235]: the IC50 is 1.4 nM.
On to `[O-][n+]1cc(-c2c(-n3cnnn3)ccc(Cl)c2F)ccc1C(CCOC(F)F)n1cc(-c2cn(C(F)F)nn2)cn1` (single isomer, unassigned) [Example P659], for which the IC50 stood at 170 nM.
With `[O-][n+]1cc(-c2c(-n3cc(Cl)nn3)ccc(Cl)c2F)ccc1[C@@H](CCOC(F)F)n1cc(-c2cnn(C(F)F)n2)cn1` [Example P666], the IC50 turned out to be 212 nM.
In the case of `NC(=O)c1ccc(-c2cnn(C(Cc3ccn(C(F)F)n3)c3ccc(-c4c(C(F)F)ccc(Cl)c4F)c[n+]3[O-])c2)cc1F` (single isomer, unassigned) [Example Q67], the IC50 was found to be 2.9 nM.
On to `COC(=O)N(C)CC(c1ccc(-c2c(-n3cnnn3)ccc(Cl)c2F)c[n+]1[O-])n1cc(-c2ccnc(F)c2)cn1` (single isomer, unassigned) [Example P355], for which the IC50 amounted to 933 nM.
Next, `Cn1ncnc1-c1cnn(C(CCOC(F)F)c2ccc(-c3c(-n4nncc4OC(F)F)ccc(Cl)c3F)c[n+]2[O-])c1` (single isomer, unassigned) [Example P800]: 62.7 nM; `[O-][n+]1cc(-c2c(-n3cnnn3)ccc(Cl)c2F)ccc1[C@@H](CC1CC1)n1cc(-c2nnn(C(F)F)c2Cl)cn1` [Example P604]: 290 nM.
As for `Cn1cc(-c2cnn([C@H](CCOC(F)F)c3ccc(-c4c(-n5cc(C(F)(F)F)nn5)ccc(Cl)c4F)c[n+]3[O-])c2)nn1` [Example P760], the IC50 turned out to be 454 nM.

Usually IC50 stands for the concentration that gives 50% inhibition.
